Data published in paper PMC9997069 (Molecular Pharmaceutics, 2023).
Where “and” joins values, the source holds several entries; their conditions need not be identical. Identical values can stand only once. Entries after “also recorded” stand apart in the source; their conditions may differ. Like-named read-outs stand apart in the source and are kept apart here.

Assays:
HSA [1] = target: T1, HSA (Homo sapiens, UniProt P02768); details: cited from earlier work
T1 construct: purchased Sigma-Aldrich
T1 sequence (P02768 25-609): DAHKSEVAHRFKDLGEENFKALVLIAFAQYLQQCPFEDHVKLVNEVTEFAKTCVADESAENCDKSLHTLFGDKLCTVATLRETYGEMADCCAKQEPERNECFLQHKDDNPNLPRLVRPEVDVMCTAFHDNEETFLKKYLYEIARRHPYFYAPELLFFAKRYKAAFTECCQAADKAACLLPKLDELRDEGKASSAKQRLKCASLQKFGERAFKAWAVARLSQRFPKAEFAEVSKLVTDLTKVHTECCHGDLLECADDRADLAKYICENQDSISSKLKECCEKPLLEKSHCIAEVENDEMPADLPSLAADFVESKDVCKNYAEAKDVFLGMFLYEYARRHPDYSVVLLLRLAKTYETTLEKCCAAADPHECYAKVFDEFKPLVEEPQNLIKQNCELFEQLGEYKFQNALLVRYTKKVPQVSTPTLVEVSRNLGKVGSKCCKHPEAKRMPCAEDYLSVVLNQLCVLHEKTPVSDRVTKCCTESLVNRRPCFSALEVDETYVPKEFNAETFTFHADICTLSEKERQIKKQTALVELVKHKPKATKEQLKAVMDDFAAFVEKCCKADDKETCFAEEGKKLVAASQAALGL

[2] = Protonation equilibria by UV-vis pH titration with DFT assignment; assay type: physicochemical; details: for pKa: aqueous solution
[3] = system: multiple leukemia cell lines; parameters: method as in PMID 26478211; details: cited from earlier work
xenograft mouse models = system: xenograft mouse models; parameters: method as in PMID 26478211; details: cited from earlier work
cancer cell lines = system: cancer cell lines; parameters: method as in PMID 19690138; details: tested cancer cell lines; cited from earlier work
HSA [4] = target: T1, HSA; experiment: Competitive binding experiments with warfarin (site 1) and ibuprofen (site 2)
Experimental: The HSA binding experiments were performed at 310 K using [HSA]:[warfarin] and [HSA]:[ibuprofen] ratios of 1. […] Synchronous fluorescence spectroscopy experiments were performed to analyze the changes in the microenvironment polarity around fluorescent residues of HSA. When the value of the intervals (Δλ) between the excitation and emission wavelengths is set at 15 nm, synchronous fluorescence spectra offer characteristic information on tyrosine residues.[61]−[63]

PLK2 and PLK3 = system: PLK2 and PLK3; parameters: method as in PMID 21459796, PMID 21809214, PMID 19690138; details: cited from earlier work
[5] = target: T2, human serum albumin (HSA) (Homo sapiens, UniProt P02768); experiment: Binding to HSA by Trp214 fluorescence quenching titration; details: for n^c ± 2σ number of binding sites / Kd / n^u ± 2σ: HSA; for n^c ± 2σ number of binding sites: inner filter corrected
T2 construct: purchased Sigma-Aldrich
T2 sequence (P02768 25-609): as above
Experimental: The emission fluorescence intensity was collected at 320 nm to avoid the fluorescence emission of the drugs. […] The excitation and emission slits were fixed at 1 and 5 nm, respectively. The step and dwell times were 1 nm and 0.1 s, respectively.
Enthalpy (ΔH) and entropy (ΔS) changes were obtained from the van′t Hoff equation [drawing 6] 6 and free energy (ΔG) changes were calculated from [drawing 7] 7 The van’t Hoff plots are shown in Figure 9, and the corresponding thermodynamic parameters are collected in Table 2. […] Proton-releasing processes in protein–ligand interactions generally result in a positive enthalpy.[64]

[6] = system: panel of 48 other kinases; parameters: method as in PMID 21459796, PMID 21809214, PMID 19690138; details: cited from earlier work
BSA = details: cited from earlier work
[7] = cited from earlier work
[8] = equilibrium between spectroscopic species 1 (charge 0/+1) and 2 (charge +2)
[9] = HSA/drug complex, van't Hoff plot 298-310 K
[10] = noncompartmental analysis, 1 hour infusion, 25 to 200 mg on day 1 and day 8 of a 21 day course

Cc1cc(Nc2cc(N3CCN(C)CC3)nc(Sc3ccc(NC(=O)C4CC4)cc3)n2)[nH]n1 [MK-0457]
Ka^c binding constant (HSA [1]; HSA, 310 K): 1.05 × 10^4 M^–1 | ΔG^0 (HSA [1]; HSA, 310 K): –23.02 kJ mol^–1 | ΔH^0 (HSA [1]; HSA): –130.63 kJ mol^–1 | ΔS^0 (HSA [1]; HSA): –343.89 J K^–1 mol^–1

COc1cc2c(Nc3ccc(Br)cc3F)ncnc2cc1OCC1CCN(C)CC1 [Vandetanib]
Ka^c binding constant (HSA [1]; HSA, 303 K): 7.63 × 10^3 M^–1 | ΔG^0 (HSA [1]; HSA, 303 K): –22.56 kJ mol^–1 | ΔH^0 (HSA [1]; HSA): –6.57 kJ mol^–1 | ΔS^0 (HSA [1]; HSA): 52.76 J K^–1 mol^–1

COc1cc(C(=O)NC2CCN(C)CC2)ccc1Nc1ncc2c(n1)N(C1CCCC1)CC(F)(F)C(=O)N2C [RO3280]
pKa [2, 8]: 12.6 | pKa ([2]; equilibrium to species with charge +3, acidic pH): 3.8 | charge state at the physiological pH ([2]; pH 7.4, aqueous solution): +2 | in vitro cellular potency [3]: high in vitro cellular potency | antitumor activity (xenograft mouse models): significant level of antitumor activity

CCOc1cc2ncc(C#N)c(Nc3ccc(OCc4ccccn4)c(Cl)c3)c2cc1NC(=O)/C=C/CN(C)C [Neratinib]
Ka^c binding constant (HSA [1]; HSA, 310 K): 2.25 × 10^5 M^–1

C[C@@H](Oc1cc(-n2cnc3ccc(CN4CCN(C)CC4)cc32)sc1C(N)=O)c1ccccc1C(F)(F)F [GSK461364]
cell growth inhibition (cancer cell lines): causes cell growth inhibition in a high percentage of tested cancer cell lines | pKa [2, 8]: 1.4 | Kd (HSA [4]; 310 K, [HSA]:[warfarin] ratio of 1, 5 μM, read-out: binding constant to HSA in the presence of warfarin (converted)): 1.04 mM | preferential binding site into HSA (HSA [4]; competitive experiments with warfarin and ibuprofen): site 1; also recorded: site I | selectivity for PLK1 than for PLK2 and PLK3 (PLK2 and PLK3): at least 390 fold | binding constant to HSA, times lower than for RO3280 ([5]; 310 K): 25 times | n^c ± 2σ number of binding sites ([5]; 298 K): 1.19 ± 0.06 | Kd ([5]; 298 K, pH 7.4, inner filter corrected, read-out: Ka^c binding constant (converted)): 4.81 µM | n^u ± 2σ ([5]; 298 K, without inner filter corrections): 1.29 ± 0.10 | Kd ([5]; 298 K, without inner filter corrections, read-out: log Ka^u ± 2σ (converted)): 0.871 µM | n^c ± 2σ number of binding sites ([5]; 303 K): 1.15 ± 0.03 | Kd ([5]; 303 K, pH 7.4, inner filter corrected, read-out: Ka^c binding constant (converted)): 8.26 µM | n^u ± 2σ ([5]; 303 K, without inner filter corrections): 1.28 ± 0.05 | Kd ([5]; 303 K, without inner filter corrections, read-out: log Ka^u ± 2σ (converted)): 1.07 µM | n^c ± 2σ number of binding sites ([5]; 310 K): 1.11 ± 0.05 | Kd ([5]; 310 K, pH 7.4, inner filter corrected, read-out: Ka^c binding constant (converted)): 11.4 µM | n^u ± 2σ ([5]; 310 K, without inner filter corrections): 1.23 ± 0.06 | Kd ([5]; 310 K, without inner filter corrections, read-out: Ka^u binding constant to HSA (converted)): 1.79 µM | ΔG^0 ([5]; HSA/drug complex, 298 K): –30.22 kJ mol^–1 | ΔG^0 ([5]; HSA/drug complex, 303 K): –29.80 kJ mol^–1 | ΔG^0 ([5]; HSA/drug complex, 310 K): –29.20 kJ mol^–1 | ΔH^0 [5, 9]: –55.61 kJ mol^–1 | ΔS^0 [5, 9]: –85.20 J K^–1 mol^–1 | selectivity for PLK1 than for a panel of 48 other kinases [6]: 1000 fold

Cc1cc(C(=O)Nc2nc3cccc(Cl)c3n2[C@@H]2CCCCN(C(=O)/C=C/CN(C)C)C2)ccn1 [Nazartinib (EGF816), Nazartinib]
Ka^c binding constant (HSA [1]; HSA, 310 K): 2.67 × 10^4 M^–1 | ΔG^0 (HSA [1]; HSA, 310 K): –26.27 kJ mol^–1 | ΔH^0 (HSA [1]; HSA): –3.22 kJ mol^–1 | ΔS^0 (HSA [1]; HSA): 74.36 J K^–1 mol^–1

C[C@@H](Oc1cc(-c2cnn(C3CCNCC3)c2)cnc1N)c1c(Cl)ccc(F)c1Cl [Crizotinib]
Ka^c binding constant (BSA; 309 K, listed as crizotinib): 3.4 × 10^4 M^–1 | Ka^c binding constant (BSA; 309 K): 3.43 × 10^4 M^–1

Cc1ccc(F)c(NC(=O)Nc2ccc(-c3cccc4[nH]nc(N)c34)cc2)c1 [Linifanib]
Ka^c binding constant (BSA; 308 K): 4.3 × 10^3 M^–1

C=CC(=O)N1CCC[C@@H](n2nc(-c3ccc(Oc4ccccc4)cc3)c3c(N)ncnc32)C1 [Ibrutinib]
Ka^c binding constant (HSA [1]; HSA, 310 K): 7.2 × 10^3 M^–1 | ΔG^0 (HSA [1]; HSA, 310 K): –25.09 kJ mol^–1 | ΔH^0 (HSA [1]; HSA): –16.91 kJ mol^–1 | ΔS^0 (HSA [1]; HSA): 26.44 J K^–1 mol^–1

CC[C@@H]1C(=O)N(C)c2cnc(Nc3ccc(C(=O)NC4CCN(C)CC4)cc3OC)nc2N1C1CCCC1 [BI-2536]
terminal half-life (up to) ([7]; 1 hour intravenous infusion, 50, 60 and 70 mg on days 1 and 3 of a 21 day course): 20 to 30 h | volume of distribution [7]: 751 to 2200 L | half-life [7, 10]: around 25 hours | half-life, max [7, 10]: 55.1 h | half-life, min [7, 10]: 18.6 h | terminal half-life ([7]; single intravenous infusion, 200 mg over 1 h): 15.4 h | ΔG^0 (HSA [1]; HSA/drug complex, 298 K): –33.6 kJ mol^–1 | ΔG^0 (HSA [1]; HSA/drug complex, 303 K): –36.0 kJ mol^–1 | ΔG^0 (HSA [1]; HSA/drug complex, 310 K): –39.2 kJ mol^–1 | ΔH^0 (HSA [1]; HSA/drug complex): 103.8 kJ mol^–1 | ΔS^0 (HSA [1]; HSA/drug complex): 461.3 J K^–1 mol^–1 | Ka^c binding constant to HSA (HSA [1]): 3.78 × 10^6 M^–1 | Ka^u binding constant to HSA (HSA [1]): 11.4 × 10^7 M^–1 | n^c ± 2σ number of binding sites (HSA [1]): 1.30 ± 0.09 and 1.22 ± 0.16 and 1.35 ± 0.16

C#Cc1cccc(Nc2ncnc3cc(OCCOC)c(OCCOC)cc23)c1 [Erlotinib]
Ka^c binding constant (BSA; 307 K): 3.44 × 10^2 M^–1

C[C@H](Cn1cnc2c(N)ncnc21)OCP(=O)(O)O [tenofovir]
binding constant to HSA (HSA [1]; 310 K): 5.7 × 10^4 M^–1

CNC(=O)c1cc(Oc2ccc(NC(=O)Nc3ccc(Cl)c(C(F)(F)F)c3)cc2)ccn1 [Sorafenib]
Ka^c binding constant (HSA [1]; HSA, 305 K): 2.64 × 10^4 M^–1 | ΔG^0 (HSA [1]; HSA, 305 K): –25.8 kJ mol^–1 | ΔH^0 (HSA [1]; HSA): –28.2 kJ mol^–1 | ΔS^0 (HSA [1]; HSA): –7.87 J K^–1 mol^–1
